Assay results published in patent US7875647B2, “Heteroaryl-pyrazole derivatives as cannabinoid CB1 receptor antagonists” (Green Cross Corporation, priority 2006, dated 2011).

Biological target: T1, Cannabinoid-1 receptor (CB1R) (Rattus norvegicus, UniProt P20272)
T1 construct: The tissue obtained from the brain of SD rats was homogenized; from tissue; host or cells: brain of SD rats (membrane pellet of the homogenate)
Experiment: Cannabinoid-1 receptor (CB1R) binding affinity assay ([3H]CP-55940, rat CB-1 receptor binding protocol)
Settings: IC50(nM), brain tissue of SD rats, [3H]CP-55940, 30° C. 60 min

T1 sequence (P20272 whole entry): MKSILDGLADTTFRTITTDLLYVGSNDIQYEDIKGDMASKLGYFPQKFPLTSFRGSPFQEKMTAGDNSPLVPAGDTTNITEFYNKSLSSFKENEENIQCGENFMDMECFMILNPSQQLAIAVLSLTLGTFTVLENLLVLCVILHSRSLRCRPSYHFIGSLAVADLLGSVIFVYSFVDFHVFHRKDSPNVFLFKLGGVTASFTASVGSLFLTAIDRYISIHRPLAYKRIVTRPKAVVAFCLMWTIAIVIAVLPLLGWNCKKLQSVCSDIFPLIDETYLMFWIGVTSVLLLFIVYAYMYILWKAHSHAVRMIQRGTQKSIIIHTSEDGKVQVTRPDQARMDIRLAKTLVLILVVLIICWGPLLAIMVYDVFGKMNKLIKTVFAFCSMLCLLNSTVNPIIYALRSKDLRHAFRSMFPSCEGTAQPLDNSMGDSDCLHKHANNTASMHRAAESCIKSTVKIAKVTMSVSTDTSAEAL

Structure (SMILES) | IC50 [nM]
COC(=O)NC(C)c1c(-c2nnc(C(C)(C)C)s2)nn(-c2ccc(Cl)cc2Cl)c1-c1ccc(Br)cc1 (centres unmarked) [Example 532, Methyl 1-(5-(4-bromophenyl)-3-(5-tert-butyl-1,3,4-thiadiazol-2-yl)-1-(2,4-dichlorophenyl)-1H-pyrazol-4-yl)ethylcarbamate] | 8.75
CC(=O)OCc1c(-c2nnc(C3(c4ccc(Cl)cc4)CC3)o2)nn(-c2ccc(Cl)cc2Cl)c1-c1ccc(Cl)cc1 [Example 197, (5-(4-chlorophenyl)-3-(5-(1-(4-chlorophenyl)cyclopropyl)-1,3,4-oxadiazol-2-yl)-1-(2,4-dichlorophenyl)-1H-pyrazol-4-yl)methyl acetate] | 7.07

Same assay, conditions: brain tissue of SD rats, [3H]CP-55940, 30° C. 60 min; read-out: IC50

IC50 [nM] | Structure (SMILES)
2.88 | Clc1ccc(-c2c(Cn3cncn3)c(-c3nnc(C4(c5ccccc5)CCCC4)s3)nn2-c2ccc(Cl)cc2Cl)cc1 [Example 514, 2-(4-((1H-1,2,4-triazol-1-yl)methyl)-5-(4-chlorophenyl)-1-(2,4-dichlorophenyl)-1H-pyrazol-3-yl)-5-(1-phenylcyclopentyl)-1,3,4-thiadiazole]
12 | CC(C)(C)c1nnc(-c2nn(-c3ccc(Cl)cc3Cl)c(-c3ccc(Br)cc3)c2Cn2cnnn2)o1 [Example 303, 2-(4-((1H-tetrazol-1-yl)methyl)-5-(4-bromophenyl)-1-(2,4-dichlorophenyl)-1H-pyrazol-3-yl)-5-tert-butyl-1,3,4-oxadiazole]
29.6 | Cc1c(-c2nnc(C3CCC3)s2)nn(-c2ccccc2Cl)c1-c1ccc(Br)cc1 [Example 427, 2-(5-(4-bromophenyl)-1-(2-chlorophenyl)-4-methyl-1H-pyrazol-3-yl)-5-cyclobutyl-1,3,4-thiadiazole]
32.8 | CCc1c(-c2nnc(C3(c4ccccc4)CCCC3)s2)nn(-c2ccc(Cl)cc2Cl)c1-c1ccc(Br)cc1 [Example 485, 2-(5-(4-bromophenyl)-1-(2,4-dichlorophenyl)-4-ethyl-1H-pyrazol-3-yl)-5-(1-phenylcyclopentyl)-1,3,4-thiadiazole]
135 | Cc1c(-c2nnn(Cc3ccncc3)n2)nn(-c2ccc(Cl)cc2Cl)c1-c1ccc(Cl)cc1 [Example 588, 4-((5-(5-(4-Chlorophenyl)-1-(2,4-dichlorophenyl)-4-methyl-1H-pyrazol-3-yl)-2H-tetrazol-2-yl)methyl)pyridine]
5.8 | CCc1c(-c2nnc(C3(c4ccc(F)cc4)CC3)o2)nn(-c2ccc(Cl)cc2Cl)c1-c1ccc(Br)cc1 [Example 272, 2-(5-(4-bromophenyl)-1-(2,4-dichlorophenyl)-4-ethyl-1H-pyrazol-3-yl)-5-(1-(4-fluorophenyl)cyclopropyl)-1,3,4-oxadiazole]
10 | COc1ccc(-c2c(C)c(-c3nnc(C4(c5ccc(Cl)cc5)CC4)o3)nn2-c2ccc(Cl)cc2Cl)cc1 [Example 138, 2-(1-(4-chlorophenyl)cyclopropyl)-5-(1-(2,4-dichlorophenyl)-5-(4-methoxyphenyl)-4-methyl-1H-pyrazol-3-yl)-1,3,4-oxadiazole]
27.8 | CCC(C)(C)c1nnc(-c2nn(-c3ccc(Cl)cc3Cl)c(-c3ccc(Cl)cc3)c2Br)o1 [Example 342, 2-(4-bromo-5-(4-chlorophenyl)-1-(2,4-dichlorophenyl)-1H-pyrazol-3-yl)-5-tert-pentyl-1,3,4-oxadiazole]
46.7 | Cc1c(-c2nnc(C(C)C3CCCCC3)s2)nn(-c2ccc(Cl)cc2Cl)c1-c1ccc(Cl)cc1 (centres unmarked) [Example 392, 2-(5-(4-chlorophenyl)-1-(2,4-dichlorophenyl)-4-methyl-1H-pyrazol-3-yl)-5-(1-cyclohexylethyl)-1,3,4-thiadiazole]
135 | Cc1c(-c2nnnn2CCc2ccccc2)nn(-c2ccc(Cl)cc2Cl)c1-c1ccc(Cl)cc1 [Example 591, 5-(5-(4-Chlorophenyl)-1-(2,4-dichlorophenyl)-4-methyl-1H-pyrazol-3-yl)-1-phenethyl-1H-tetrazole]
16.9 | CCCCC(C)c1nnc(-c2nn(-c3ccc(Cl)cc3Cl)c(-c3ccc(Cl)cc3)c2C)s1 (centres unmarked) [Example 379, 2-(5-(4-Chlorophenyl)-1-(2,4-dichlorophenyl)-4-methyl-1H-pyrazol-3-yl)-5-(hexan-2-yl)-1,3,4-thiadiazole]
105 | Cc1c(-c2nnn(Cc3ccccc3)n2)nn(-c2ccc(Cl)cc2Cl)c1-c1ccc(Cl)cc1 [Example 582, 2-Benzyl-5-(5-(4-chlorophenyl)-1-(2,4-dichlorophenyl)-4-methyl-1H-pyrazol-3-yl)-2H-tetrazole]
4.08 | Cc1c(-c2nnc(C3CCC3)s2)nn(-c2ccc(Cl)cc2Cl)c1-c1ccc(Cl)cc1 [Example 345, 2-(5-(4-chlorophenyl)-1-(2,4-dichlorophenyl)-4-methyl-1H-pyrazol-3-yl)-5-cyclobutyl-1,3,4-thiadiazole]
12 | C=C(C)c1c(-c2nnc(C(C)(C)C)s2)nn(-c2ccc(Cl)cc2Cl)c1-c1ccc(Br)cc1 [Example 535, 2-(5-(4-bromophenyl)-1-(2,4-dichlorophenyl)-4-(prop-1-en-2-yl)-1H-pyrazol-3-yl)-5-tert-butyl-1,3,4-thiadiazole]
13.7 | CCc1c(-c2nnc(C(C)(C)OCCCO)o2)nn(-c2ccc(Cl)cc2Cl)c1-c1ccc(Br)cc1 [Example 240, 3-(2-(5-(5-(4-bromophenyl)-1-(2,4-dichlorophenyl)-4-ethyl-1H-pyrazol-3-yl)-1,3,4-oxadiazol-2-yl)propan-2-yloxy)propan-1-ol]
14.7 | Cc1c(-c2nnc(C3(C)CC3)o2)nn(-c2ccc(Cl)cc2Cl)c1-c1ccc(Cl)cc1 [Example 275, 2-(5-(4-chlorophenyl)-1-(2,4-dichlorophenyl)-4-methyl-1H-pyrazol-3-yl)-5-(1-methylcyclopropyl)-1,3,4-oxadiazole]
42 | CCCOC(C)(C)c1nnc(-c2nn(-c3ccc(Cl)cc3Cl)c(-c3ccc(Cl)cc3)c2C)o1 [Example 235, 2-(5-(4-chlorophenyl)-1-(2,4-dichlorophenyl)-4-methyl-1H-pyrazol-3-yl)-5-(2-propoxypropan-2-yl)-1,3,4-oxadiazole]
9.42 | CCc1c(-c2nnc(C3CCCCCC3)s2)nn(-c2ccc(Cl)cc2Cl)c1-c1ccc(Cl)cc1 [Example 397, 2-(5-(4-chlorophenyl)-1-(2,4-dichlorophenyl)-4-ethyl-1H-pyrazol-3-yl)-5-cycloheptyl-1,3,4-thiadiazole]
41.5 | CC(C)NCc1c(-c2nnc(C(C)(C)C)o2)nn(-c2ccc(Cl)cc2Cl)c1-c1ccc(Cl)cc1 [Example 295, N-((3-(5-tert-butyl-1,3,4-oxadiazol-2-yl)-5-(4-chlorophenyl)-1-(2,4-dichlorophenyl)-1H-pyrazol-4-yl)methyl)propan-2-amine]

Structure (SMILES) | IC50 [nM]
CCCCOC(C)(C)c1nnc(-c2nn(-c3ccc(Cl)cc3Cl)c(-c3ccc(Cl)cc3)c2C)s1 [Example 457, 2-(2-butoxypropan-2-yl)-5-(5-(4-chlorophenyl)-1-(2,4-dichlorophenyl)-4-methyl-1H-pyrazol-3-yl)-1,3,4-thiadiazole] | 16.9
Cc1c(-c2nnnn2C2CCCC2)nn(-c2ccc(Cl)cc2Cl)c1-c1ccc(Cl)cc1 [Example 577, 5-(5-(4-Chlorophenyl)-1-(2,4-dichlorophenyl)-4-methyl-1H-pyrazol-3-yl)-1-cyclopentyl-1H-tetrazole] | 26.5
